Measured values reported in ChEMBL document CHEMBL1157539, “Thousands of chemical starting points for antimalarial lead identification” (Nature, 2010).

Tested on: Plasmodium falciparum
Experiment: GSK_TCMDC: Inhibition of Plasmodium falciparum 3D7 in whole erythrocytes, using parasite LDH activity as an index of growth.
Assay type: functional, organism-based
Settings: Plasmodium falciparum, 3D7

SMILES | XC50
CCN(CC)CCN(Cc1ccc(-c2ccc(C(F)(F)F)cc2)cc1)C(=O)Cn1c(CCc2cc(F)cc(F)c2)nc(=O)c2ccccc21 | 983 nM
O=C(Cn1c(CCc2cccc(F)c2F)cc(=O)c2ccccc21)N(CCN1CCCC1)Cc1ccc(-c2ccc(C(F)(F)F)cc2)cc1 | 859 nM
OC1=C2C(=Nc3ccccc3SC2c2ccccc2)c2ccccc21 (configuration not stated) | 325 nM
COc1ccccc1CCNc1nc(C)cc(N[C@@H](CC(C)C)C(=O)NCc2cccs2)n1 | 793 nM
CC(=O)NCC(=O)NC1=NC(=N)N(OCc2ccc3ccccc3c2)C(C)(C)N1 | 3.2 nM
Cc1ccc(N2C(=O)C3C(C2=O)C2(c4ccccc4)C(=O)C3(c3ccccc3)C(c3ccccc3)=C2c2ccccc2)cc1 (configuration not stated) | 869 nM
O=C1c2ccccc2CN1CCCN1CCC(Oc2ccc(F)cc2)CC1 | 1210 nM
C=CCC1OC(=O)c2cc(OC)cc(OC)c21 (configuration not stated) | 343 nM
Cc1cc(Cl)c(S(=O)(=O)NC2CCCC2)cc1OCC(=O)NC1CCCCC1 | 385 nM
C[C@H](Cc1ccc(OCCCCCOc2ccc(C[C@@H](C)NC[C@H](O)c3cccc(Cl)c3)cc2)cc1)NC[C@H](O)c1cccc(Cl)c1 | 190 nM
CS(=O)(=O)c1ccccc1CNC(=O)c1cccc(-c2ccc(-c3nc4cc(C(F)(F)F)ccc4[nH]3)cc2)c1 | 809 nM
CC(C)CNC(=O)c1cncc(-c2cccc(CNC3Cc4ccccc4C3)c2)c1 | 786 nM
CCCCc1ccc(Cc2cnc3nc(N)nc(N)c3c2C)cc1 | 235 nM
Cc1cnc(NCC2CCCCC2)nc1NCC(=O)Nc1ccccc1 | 714 nM
COc1cc(Br)ccc1N1CCN(CCCCNC(=O)c2ccc(NC(=O)c3ccc(Cl)cc3)cc2)CC1 | 758 nM
CN(C)CCN(C)Cc1ccc(-c2ccc(NC(=O)c3cccc(Cl)c3)cc2)cc1 | 1140 nM
CO/C(=C\C=C\c1cc2cc(Cl)c(Cl)cc2[nH]1)C(=O)NCC(C)(C)CN(C)C | 1160 nM
CC1CN(c2cnn(C/C=C/c3ccc(NC(=O)c4ccc5nonc5c4)cc3)c(=O)c2Cl)CC(C)N1 (configuration not stated) | 786 nM
COc1ccc2[nH]ccc(=NN=Cc3cccc(F)c3)c2c1 | 750 nM

SMILES | XC50
COc1cccc(C(=O)Nc2ccc(Nc3nc(C)cc(N(C)C)n3)cc2)c1OC | 1020 nM
CCCNc1ccc(-c2cc(C(N)=O)c3[nH]cc(C4CCN(S(=O)(=O)CC)CC4)c3c2)cn1 | 817 nM
O=C(NC1CCCCC1)N(Cc1cccc(-c2cccc(CNC3CCCC3)c2)c1)C1CCN(Cc2ccccc2)CC1 | 736 nM
Cc1ccc(C(=O)NCC2CCN(c3ccc(C(F)(F)F)cc3NC(=O)c3ccco3)CC2)cn1 | 782 nM
O=C(Nc1ccc(C(F)(F)F)cc1)c1ccc(S(=O)(=O)NC2CCN(CC3CCCCC3)CC2)cc1 | 731 nM
CCOCCCn1c(=N)c(C(=O)NC(C)c2ccccc2)cc2c(=O)n3cccc(C)c3nc21 (configuration not stated) | 1200 nM
CC(Cc1ccc(OCc2ccccc2)c(Cl)c1)NCC(O)c1cccc(C(F)(F)F)c1 (configuration not stated) | 940 nM
COc1cc2nc(NCCc3ccccc3)nc(NCCc3ccccc3)c2cc1OC | 282 nM
Cn1cccc1CCNCc1ccc(-c2cccc(-c3nc4cc(F)ccc4[nH]3)c2)cc1 | 1220 nM
CC(C)(C)c1ccc(CN2CCC(CNC(=O)c3cc(-c4ccccc4Cl)cs3)C2)cc1 (configuration not stated) | 856 nM
O=C(Nc1ccccc1)N(Cc1cccc(-c2ccc(CNCc3ccc4c(c3)OCO4)cc2)c1)C1CCN(Cc2ccccc2)CC1 | 325 nM
Cc1nc2c(-n3cc(Cn4ccnc4)c4ccccc43)ncnc2n1-c1ccc(Cl)cc1Cl | 994 nM
CC(C)C[C@H](NC(=O)[C@H](Cc1ccccc1)N(C[C@H](Cc1ccccc1)NC(=O)OC(C)(C)C)C(=O)C(F)(F)F)C(=O)NC1CCN(Cc2ccccc2)CC1 | 530 nM
CCN(CCCN1CCCCC1)c1cc(C)nc(Nc2ccc(C)cc2Br)n1 | 172 nM
Cn1cnc2c(SCc3ccccc3OCc3ccccc3)ncnc21 | 922 nM
COc1ccc2nccc([C@@H](O)CN3CCC(NC[C@H](Cc4ccccc4)NC(=O)OC(C)(C)C)CC3)c2c1 | 228 nM
O=C(/C=C/c1ccc(F)cc1)NC1CCC(CCN2CCCN(c3ccc(C(F)(F)F)cn3)CC2)CC1 (configuration not stated) | 1080 nM
COc1ccc(CNc2nccc3ccc(-c4ccc(N)nc4)cc23)cc1 | 979 nM
